EC50 data for 8 compounds are collected here from ChEMBL document CHEMBL3120052, “HCV polymerase inhibitors” (ACS Med Chem Lett, 2014).

This assay deals with Hepatitis C virus. Briefly: Antiviral activity against HCV genotype 1b expressing wild type NS3-NS5B infected in HuH7 luc/neo cells assessed as inhibition of RNA replication after 3 days by luciferase reporter gene assay. In kind it is functional, organism-based, Hepacivirus hominis. Conditions: Huh-7, 72 h. (Reporter assays use an easily measured gene product as a stand-in for the process of interest.)
On to `C[C@H](NP(=O)(OC[C@H]1O[C@@H](n2ccc(=O)[nH]c2=O)[C@](C)(N)[C@@H]1O)Oc1ccccc1)C(=O)OC1CCCCCCC1` (stereo partly drawn), for which the EC50 – broadly, the concentration giving half of the maximal effect – came out at 290 nM. In the case of `C[C@H](NP(=O)(OC[C@H]1O[C@@H](n2ccc(=O)[nH]c2=O)[C@](C)(NC(=O)OC(C)(C)C)[C@@H]1O)Oc1ccccc1)C(=O)OC1CCCCCCC1` (stereo partly drawn) it was 15000 nM; in that of `C[C@H](NP(=O)(OC[C@H]1O[C@@H](n2ccc(=O)[nH]c2=O)[C@](C)(NC(=O)OC(C)(C)C)[C@@H]1O)Oc1ccccc1)C(=O)OC1CCCC1` (stereo partly drawn), 4700 nM; in that of `C[C@H](NP(=O)(OC[C@H]1O[C@@H](n2ccc(=O)[nH]c2=O)[C@](C)(N)[C@@H]1O)Oc1ccccc1)C(=O)OC1CCCC1` (stereo partly drawn), 470 nM. For `C[C@H](NP(=O)(OC[C@H]1O[C@@H](n2ccc(=O)[nH]c2=O)[C@](C)(NC(=O)OC(C)(C)C)[C@@H]1O)Oc1ccccc1)C(=O)OCCC(C)(C)C` (stereo partly drawn), the EC50 amounted to 2300 nM. In the case of `C[C@H](NP(=O)(OC[C@H]1O[C@@H](n2ccc(=O)[nH]c2=O)[C@](C)(N)[C@@H]1O)Oc1ccccc1)C(=O)OCCC(C)(C)C` (stereo partly drawn) it was 490 nM. In the case of `C[C@H](NP(=O)(OC[C@H]1O[C@@H](n2ccc(=O)[nH]c2=O)[C@](C)(NC(=O)OC(C)(C)C)[C@@H]1O)Oc1ccccc1)C(=O)OC1CCCCCC1` (stereo partly drawn) it was 3000 nM; in that of `C[C@H](NP(=O)(OC[C@H]1O[C@@H](n2ccc(=O)[nH]c2=O)[C@](C)(N)[C@@H]1O)Oc1ccccc1)C(=O)OC1CCCCCC1` (stereo partly drawn), 190 nM.
